For data set [1], the system named is microbial attack. Put plainly: Preservation of ophthalmic compositions from microbial attack. The note with it: brimonidine/timolol compositions of the invention. The source says: Ophthalmic products are typically packaged in multidose form. Preservatives are thus required to prevent microbial contamination during use. Suitable preservatives include: benzalkonium chloride, thimerosal, chlorobutanol, methyl paraben, propyl paraben, phenylethyl alcohol, edetate disodium, sorbic acid, Onamer M, or other agents known to those skilled in the art. In the prior art ophthalmic products, typically such preservatives are employed at a level of from 0.004% to 0.02%. In the compositions of the present application the preservative, preferably benzalkonium chloride, may be employed at a level of from 0.001% to less than 0.01%, e.g. from 0.001% to 0.008%, preferably about 0.005% by weight. […] This concentration may be advantageously compared to the requirement of 0.01% benzalkonium chloride to preserve timolol in the individual, commercially-available ophthalmic products.

The subject of data set [2] is microbial attack. The note with it: cited from earlier work.
Data set [3] is described as follows: Formation of the compound in a brimonidine tartrate / timolol maleate composition stored at ambient temperature (age of composition). The note with it: for Compound Concentration (% weight/vol): composition initially 0.2% brimonidine tartrate and 0.68% timolol maleate, pH 6.9, ambient temperature. The class given is physicochemical. On the procedure:
The compound disclosed herein can also be used to estimate the age of a composition, stored at ambient temperature, initially comprising brimonidine tartrate and timolol maleate of known amounts and having a pH of 6.9. The age of the […] (λ) in months is determined by equation 3, where B^o, T^o, and C^o are the initial concentrations of brimonidine, timolol maleate, and the compound respectively, in % (w/v). λ=C^o/(1.1×10^−3(B^oT^o)) [eq. 3] Equation 3 is an approximation which assumes that B^o and T^o>>C^o. If that is not the case, the age is determined using the rate constant k=1.1×10^−3 month^−1%^−1 and the appropriate rate expression.
If the composition initially comprises 0.2% brimonidine tartrate and 0.68% timolol maleate. The age of the composition may be determined according to Table 2 below. Alternatively, up to about 36 months, the age is determined by multiplying the concentration of the compound in % (w/v) by 9100.

Data on two molecules can be found in patent publication US7960382B2, “Compounds and their use related to compositions for treating disease” (Allergan, Inc., priority 2005, dated 2011).

As to benzalkonium chloride, in the data set on microbial attack [1], the “concentration sufficient to preserve the compositions of the present invention from microbial attack” value came out at 0.005%. In the data set with microbial attack [2], the “concentration required to preserve timolol in the individual, commercially-available ophthalmic products” value is recorded as 0.01%.
For `O=C(O)C1CC(=O)N2CCN=C2N1c1ccc2nccnc2c1Br` (stereo not drawn) [Compound, 8-(5-bromoquinoxalin-6-yl)-5-oxo-2,3,5,6,7,8-hexahydroimidazo[1,2-a]pyrimidine-7-carboxylic acid], the “Compound Concentration (% weight/vol)” value in data set [3] (Age 1 month) stood at 0.0001 % weight/vol; in data set [3] (Age 2 months), 0.0002 % weight/vol; in data set [3] (Age 3 months) it was 0.0003 % weight/vol; in data set [3] (Age 4 months), 0.0004 % weight/vol; in data set [3] (Age 5 months) it was 0.0006 % weight/vol; in data set [3] (Age 6 months) it was 0.0007 % weight/vol. The “Compound Concentration (% weight/vol)” value in data set [3] (Age 7 months) is reported as 0.0008 % weight/vol; in data set [3] (Age 8 months), 0.0009 % weight/vol; in data set [3] (Age 9 months), 0.001 % weight/vol; in data set [3] (Age 10 months), 0.0011 % weight/vol; in data set [3] (Age 11 months) it was 0.0012 % weight/vol; in data set [3] (Age 12 months), 0.0013 % weight/vol. The “Compound Concentration (% weight/vol)” value in data set [3] (Age 13 months) turned out to be 0.0014 % weight/vol; in data set [3] (Age 14 months) it was 0.0016 % weight/vol; in data set [3] (Age 15 months), 0.0017 % weight/vol; in data set [3] (Age 16 months), 0.0018 % weight/vol; in data set [3] (Age 17 months), 0.0019 % weight/vol; in data set [3] (Age 18 months) it was 0.0020 % weight/vol. In addition, the “Compound Concentration (% weight/vol)” value amounted to 0.0021 % weight/vol in data set [3] (Age 19 months); 0.0022 % weight/vol in data set [3] (Age 20 months); 0.0023 % weight/vol in data set [3] (Age 21 months); 0.0024 % weight/vol in data set [3] (Age 22 months); 0.0026 % weight/vol in data set [3] (Age 23 months); 0.0027 % weight/vol in data set [3] (Age 24 months). Further, the “rate constant k (formation of the compound from brimonidine tartrate and timolol maleate)” value in data set [3] (composition stored at ambient temperature, pH 6.9) is recorded as 1.1×10^−3 month^−1%^−1.
